Results: ChEMBL document CHEMBL1201862, “PubChem BioAssay data set” (2004)
Activity calls are given as the source filed them.

Columns and labels:
Cytochrome P450 1A2 = target: T1, Cytochrome P450 1A2 (Homo sapiens, UniProt P05177);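 also: PubChem cytochrome P450 panel assay, CYP1A2 panel member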
T1 sequence (P05177 whole entry): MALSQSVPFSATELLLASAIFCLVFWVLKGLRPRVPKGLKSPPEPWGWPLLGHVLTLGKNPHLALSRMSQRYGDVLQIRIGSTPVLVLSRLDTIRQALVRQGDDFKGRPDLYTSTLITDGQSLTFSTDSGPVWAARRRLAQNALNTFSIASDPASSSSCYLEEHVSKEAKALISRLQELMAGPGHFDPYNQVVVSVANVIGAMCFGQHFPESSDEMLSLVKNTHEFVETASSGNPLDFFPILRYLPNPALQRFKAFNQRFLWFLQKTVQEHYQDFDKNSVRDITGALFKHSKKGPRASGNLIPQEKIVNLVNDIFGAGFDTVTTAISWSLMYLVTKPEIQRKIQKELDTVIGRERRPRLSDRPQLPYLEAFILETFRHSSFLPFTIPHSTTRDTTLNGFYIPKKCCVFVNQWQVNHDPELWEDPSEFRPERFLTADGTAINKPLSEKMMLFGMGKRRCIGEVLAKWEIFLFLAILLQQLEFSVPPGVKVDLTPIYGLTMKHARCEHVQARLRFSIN

Cytochrome P450 2C9 = Cytochrome P450 2C9 (Homo sapiens, UniProt P11712)
Sequence of Cytochrome P450 2C9 (P11712 whole entry): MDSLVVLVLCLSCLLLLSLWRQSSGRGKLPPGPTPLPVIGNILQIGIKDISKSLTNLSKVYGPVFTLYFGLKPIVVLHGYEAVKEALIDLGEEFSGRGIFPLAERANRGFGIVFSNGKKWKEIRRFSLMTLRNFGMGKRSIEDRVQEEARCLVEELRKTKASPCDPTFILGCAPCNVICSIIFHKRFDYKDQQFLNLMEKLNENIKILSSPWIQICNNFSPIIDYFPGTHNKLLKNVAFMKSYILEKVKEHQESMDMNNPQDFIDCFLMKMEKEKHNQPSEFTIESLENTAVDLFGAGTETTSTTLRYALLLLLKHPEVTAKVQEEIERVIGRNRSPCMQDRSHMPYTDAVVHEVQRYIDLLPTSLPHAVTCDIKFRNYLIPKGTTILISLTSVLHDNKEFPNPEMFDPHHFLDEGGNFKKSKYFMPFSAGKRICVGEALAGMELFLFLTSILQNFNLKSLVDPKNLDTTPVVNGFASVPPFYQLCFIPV

Cytochrome P450 3A4 = Cytochrome P450 3A4 (Homo sapiens, UniProt P08684);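 also: CYP3A4 tested as one member of a cytochrome P450 panel screen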
Sequence of Cytochrome P450 3A4 (P08684 whole entry): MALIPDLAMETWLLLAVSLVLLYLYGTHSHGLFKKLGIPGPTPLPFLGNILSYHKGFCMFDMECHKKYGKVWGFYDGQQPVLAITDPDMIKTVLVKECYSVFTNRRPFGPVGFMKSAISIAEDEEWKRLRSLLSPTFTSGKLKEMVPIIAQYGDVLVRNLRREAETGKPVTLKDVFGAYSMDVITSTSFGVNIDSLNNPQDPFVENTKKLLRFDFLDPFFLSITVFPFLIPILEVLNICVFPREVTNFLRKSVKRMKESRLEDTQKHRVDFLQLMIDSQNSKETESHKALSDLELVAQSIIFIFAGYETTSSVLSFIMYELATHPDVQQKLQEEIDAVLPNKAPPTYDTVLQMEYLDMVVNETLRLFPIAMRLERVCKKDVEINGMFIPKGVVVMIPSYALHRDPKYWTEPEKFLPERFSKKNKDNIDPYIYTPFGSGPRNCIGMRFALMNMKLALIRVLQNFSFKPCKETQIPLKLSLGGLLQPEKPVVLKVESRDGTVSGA

[1] = target: T2, Ubiquitin-conjugating enzyme E2 N (Homo sapiens, UniProt P61088); assay type: functional;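 also: Dose-response confirmation in a TR-FRET assay detecting UBC13-driven polyubiquitin chain formation, inhibition measured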
T2 sequence (P61088 whole entry): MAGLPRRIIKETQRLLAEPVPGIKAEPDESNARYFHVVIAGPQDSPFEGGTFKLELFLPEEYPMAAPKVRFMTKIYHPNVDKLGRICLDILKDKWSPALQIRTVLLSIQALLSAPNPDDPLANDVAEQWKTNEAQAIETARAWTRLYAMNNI

Cytochrome P450 2C19 = Cytochrome P450 2C19 (Homo sapiens, UniProt P33261); test: Cytochrome panel assay with activity outcomes. Panel member name: p450-cyp2c19 Compounds with AC50 equal or less than 10 uM are considered active; assay type: functional; settings: read-out: AC50
Sequence of Cytochrome P450 2C19 (P33261 whole entry): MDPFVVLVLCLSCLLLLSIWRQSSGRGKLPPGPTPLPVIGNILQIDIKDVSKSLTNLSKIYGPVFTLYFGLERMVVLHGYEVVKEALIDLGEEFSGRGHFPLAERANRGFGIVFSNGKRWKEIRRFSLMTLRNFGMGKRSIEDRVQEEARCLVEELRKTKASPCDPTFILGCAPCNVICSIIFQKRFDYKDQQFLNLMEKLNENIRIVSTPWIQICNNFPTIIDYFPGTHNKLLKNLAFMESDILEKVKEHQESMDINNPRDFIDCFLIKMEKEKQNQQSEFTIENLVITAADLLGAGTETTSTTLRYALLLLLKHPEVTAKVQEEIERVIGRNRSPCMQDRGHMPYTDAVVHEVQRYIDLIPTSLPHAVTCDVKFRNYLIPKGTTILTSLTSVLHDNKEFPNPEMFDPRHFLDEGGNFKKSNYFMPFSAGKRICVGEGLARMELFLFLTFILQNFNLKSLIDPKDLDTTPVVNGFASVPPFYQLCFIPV

[2] = target: T3, Histone-lysine N-methyltransferase NSD2 (Homo sapiens, UniProt O96028); assay type: biochemical
T3 sequence (O96028 whole entry): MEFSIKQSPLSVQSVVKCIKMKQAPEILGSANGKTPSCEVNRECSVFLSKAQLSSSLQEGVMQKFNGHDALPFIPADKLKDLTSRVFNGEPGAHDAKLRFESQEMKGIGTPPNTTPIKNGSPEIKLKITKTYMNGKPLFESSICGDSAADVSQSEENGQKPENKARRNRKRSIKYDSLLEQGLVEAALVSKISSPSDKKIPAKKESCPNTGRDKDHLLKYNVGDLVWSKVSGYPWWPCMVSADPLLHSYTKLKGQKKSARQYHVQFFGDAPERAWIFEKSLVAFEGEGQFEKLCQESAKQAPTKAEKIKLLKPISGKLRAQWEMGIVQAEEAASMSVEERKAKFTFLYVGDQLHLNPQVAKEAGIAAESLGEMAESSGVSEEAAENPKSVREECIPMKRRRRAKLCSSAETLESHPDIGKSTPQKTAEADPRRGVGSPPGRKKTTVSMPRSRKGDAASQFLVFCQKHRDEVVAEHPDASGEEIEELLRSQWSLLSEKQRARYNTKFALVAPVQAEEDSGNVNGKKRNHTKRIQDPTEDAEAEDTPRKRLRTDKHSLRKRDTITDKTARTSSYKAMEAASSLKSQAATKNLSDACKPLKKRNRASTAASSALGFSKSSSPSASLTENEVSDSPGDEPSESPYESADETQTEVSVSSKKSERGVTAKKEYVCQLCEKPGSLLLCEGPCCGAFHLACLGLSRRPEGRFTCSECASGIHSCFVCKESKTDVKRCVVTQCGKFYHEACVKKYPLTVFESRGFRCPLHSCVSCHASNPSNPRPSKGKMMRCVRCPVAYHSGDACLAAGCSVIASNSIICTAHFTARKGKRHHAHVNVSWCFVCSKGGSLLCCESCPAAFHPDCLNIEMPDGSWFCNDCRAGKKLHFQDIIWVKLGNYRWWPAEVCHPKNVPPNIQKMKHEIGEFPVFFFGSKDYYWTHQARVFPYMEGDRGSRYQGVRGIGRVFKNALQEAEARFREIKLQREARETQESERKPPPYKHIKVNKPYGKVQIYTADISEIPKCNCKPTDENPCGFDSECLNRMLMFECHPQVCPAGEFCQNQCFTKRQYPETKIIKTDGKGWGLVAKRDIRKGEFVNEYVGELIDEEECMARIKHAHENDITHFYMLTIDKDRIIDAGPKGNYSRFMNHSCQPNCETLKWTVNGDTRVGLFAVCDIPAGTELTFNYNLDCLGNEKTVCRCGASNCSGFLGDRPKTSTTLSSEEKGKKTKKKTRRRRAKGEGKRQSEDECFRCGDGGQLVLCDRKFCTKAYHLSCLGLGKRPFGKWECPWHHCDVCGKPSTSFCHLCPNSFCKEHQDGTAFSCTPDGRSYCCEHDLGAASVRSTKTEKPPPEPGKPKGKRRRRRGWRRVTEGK

[3] = NIH3T3 cell viability loss – ATP luminescence, mouse fibroblasts, counter-screen, dose response (AID 2010); assay type: functional, cell-based;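 also: cells exposed to compound for about 90 hours before reading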
[4] = Luminescence Cell-Based Dose Retest to Confirm Inhibitors of Cancer Stem Cells. [Related pubchem assays (depositor defined):AID2717, AID2721]; assay type: functional; settings: Homo sapiens
[5] = viability of PTEN-deleted HCT116 cells – cell-based, HCT116 PTEN knockout, dose response (AID 1047); assay type: functional;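 also: HCT116 colon tumor cells with PTEN knocked out; cells exposed to compound for 60 hours before readout; potency for loss of cell viability measured by luminescence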
[6] = Trypanosoma cruzi growth suppression in host cells – NIH3T3 host cells, beta-gal luminescence, confirmation (AID 2044); assay type: functional, cell-based;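 also: intracellular parasites grown in NIH/3T3 mouse fibroblasts as host cells; luminescent beta-galactosidase reporter signal from transgenic T. cruzi replicating inside host cells; inhibitors lower the luminescence signal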
[7] = viability of HCT116 lacking mutant beta-catenin – cell-based, human colon tumor, dose response (AID 1045); assay type: functional;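 also: HCT116 colon tumor cells with beta catenin knocked out; cells exposed to compound for 60 hours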
[8] = target: T4, Polyadenylate-binding protein 1 (Homo sapiens, UniProt P11940); test: MLLE domain peptide-binding blockers, IC50 – biochemical, fluorescence polarization, FITC-PAM2 peptide, dose response (AID 602259); assay type: functional; settings: read-out: IC50_Mean
T4 sequence (P11940 whole entry, the tested form may be a part): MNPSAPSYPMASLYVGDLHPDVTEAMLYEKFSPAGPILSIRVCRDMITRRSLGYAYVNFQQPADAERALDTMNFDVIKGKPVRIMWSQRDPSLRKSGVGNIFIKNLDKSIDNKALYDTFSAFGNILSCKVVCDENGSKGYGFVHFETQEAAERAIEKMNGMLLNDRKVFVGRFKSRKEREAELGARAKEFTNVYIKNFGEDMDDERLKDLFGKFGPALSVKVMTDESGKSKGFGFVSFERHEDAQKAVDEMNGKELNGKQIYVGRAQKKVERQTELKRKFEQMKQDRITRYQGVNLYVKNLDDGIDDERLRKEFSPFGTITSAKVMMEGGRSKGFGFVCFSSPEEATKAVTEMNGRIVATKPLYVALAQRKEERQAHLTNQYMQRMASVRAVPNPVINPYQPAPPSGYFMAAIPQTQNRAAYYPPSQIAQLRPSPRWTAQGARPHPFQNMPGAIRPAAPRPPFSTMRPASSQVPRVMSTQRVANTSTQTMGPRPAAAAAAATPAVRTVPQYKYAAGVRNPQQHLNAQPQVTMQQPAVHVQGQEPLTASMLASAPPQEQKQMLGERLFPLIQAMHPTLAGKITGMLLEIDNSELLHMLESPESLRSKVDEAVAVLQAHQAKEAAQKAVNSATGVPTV

[9] = target: T4, Polyadenylate-binding protein 1; test: MLLE binding blockers, Cy5 peptide tracer – biochemical, fluorescence polarization, Cy5-PAM2 peptide, secondary, miRNA deadenylation inhibitor project, dose response (AID 602260); assay type: functional; settings: read-out: IC50_Mean
cells = assay type: functional
[10] = viability loss in HeLa cells – cytotoxicity control for MgcRacGAP inhibitor project, dose response (AID 624300); assay type: functional
[11] = target: T5, Replicative DNA helicase DnaB (Mycobacterium tuberculosis, UniProt P9WMR3); test: DnaB intein splicing inhibitors, dose response, biochemical, cell-free fluorescence (AID 449749); assay type: functional
T5 sequence (P9WMR3 whole entry): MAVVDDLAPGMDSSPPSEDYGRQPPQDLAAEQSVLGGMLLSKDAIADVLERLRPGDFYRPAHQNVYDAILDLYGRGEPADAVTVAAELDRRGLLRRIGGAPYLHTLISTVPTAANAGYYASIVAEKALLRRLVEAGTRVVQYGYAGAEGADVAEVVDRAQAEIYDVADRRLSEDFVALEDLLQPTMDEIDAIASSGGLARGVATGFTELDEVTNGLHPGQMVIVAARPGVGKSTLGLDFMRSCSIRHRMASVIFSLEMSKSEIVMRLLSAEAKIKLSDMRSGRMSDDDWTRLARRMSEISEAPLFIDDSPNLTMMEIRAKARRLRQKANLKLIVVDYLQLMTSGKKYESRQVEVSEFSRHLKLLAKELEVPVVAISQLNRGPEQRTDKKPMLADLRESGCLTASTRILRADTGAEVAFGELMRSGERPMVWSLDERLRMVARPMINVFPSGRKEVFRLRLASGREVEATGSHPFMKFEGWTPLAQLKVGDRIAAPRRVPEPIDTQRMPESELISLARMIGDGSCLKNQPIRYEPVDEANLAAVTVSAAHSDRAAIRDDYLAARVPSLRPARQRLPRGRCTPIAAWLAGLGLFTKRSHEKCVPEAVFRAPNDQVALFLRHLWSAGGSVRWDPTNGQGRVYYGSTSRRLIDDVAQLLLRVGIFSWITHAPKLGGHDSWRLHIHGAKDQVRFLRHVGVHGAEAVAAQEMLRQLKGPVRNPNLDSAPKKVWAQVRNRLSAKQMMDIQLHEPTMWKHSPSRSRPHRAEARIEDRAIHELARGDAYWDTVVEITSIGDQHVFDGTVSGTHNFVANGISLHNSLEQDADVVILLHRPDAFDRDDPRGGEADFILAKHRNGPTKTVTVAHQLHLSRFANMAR

Protein RecA = target: T6, Protein RecA (Mycobacterium tuberculosis, UniProt P9WHJ3); test: Fluorescence Cell-Free Homogeneous Dose Retest to Identify Inhibitors of RecA-Intein Splicing Activity. [Related pubchem assays (depositor defined):AID2097, AID2223, AID489010, AID492950]; assay type: functional
T6 sequence (P9WHJ3 whole entry): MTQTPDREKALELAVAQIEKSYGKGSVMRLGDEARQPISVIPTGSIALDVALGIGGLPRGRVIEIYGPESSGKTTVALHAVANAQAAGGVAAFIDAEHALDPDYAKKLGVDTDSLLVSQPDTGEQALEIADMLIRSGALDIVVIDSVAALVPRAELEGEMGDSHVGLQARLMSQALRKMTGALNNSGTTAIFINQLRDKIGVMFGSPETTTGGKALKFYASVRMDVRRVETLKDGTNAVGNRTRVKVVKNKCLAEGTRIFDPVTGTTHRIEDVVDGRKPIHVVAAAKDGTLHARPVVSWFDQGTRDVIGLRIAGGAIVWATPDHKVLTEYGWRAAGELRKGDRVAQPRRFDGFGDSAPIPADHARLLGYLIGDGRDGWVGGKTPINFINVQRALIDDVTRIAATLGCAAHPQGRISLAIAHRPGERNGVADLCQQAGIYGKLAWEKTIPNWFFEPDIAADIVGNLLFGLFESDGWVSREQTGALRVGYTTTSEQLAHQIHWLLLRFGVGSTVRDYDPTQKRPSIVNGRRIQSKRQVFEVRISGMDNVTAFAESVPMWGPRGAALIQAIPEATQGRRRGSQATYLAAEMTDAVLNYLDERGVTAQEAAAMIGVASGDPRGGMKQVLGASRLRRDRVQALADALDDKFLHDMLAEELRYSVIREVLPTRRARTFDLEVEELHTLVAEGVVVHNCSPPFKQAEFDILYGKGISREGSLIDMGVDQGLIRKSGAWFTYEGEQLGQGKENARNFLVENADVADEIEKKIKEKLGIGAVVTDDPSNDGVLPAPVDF

[12] = target: T7, Rac GTPase-activating protein 1 (Homo sapiens, UniProt Q9H0H5); test: blockers of MgcRacGAP-driven Rac1 GTP hydrolysis – biochemical, ADP Hunter fluorescence, primary and confirmatory, confirmation (AID 624330); assay type: functional
T7 sequence (Q9H0H5 whole entry): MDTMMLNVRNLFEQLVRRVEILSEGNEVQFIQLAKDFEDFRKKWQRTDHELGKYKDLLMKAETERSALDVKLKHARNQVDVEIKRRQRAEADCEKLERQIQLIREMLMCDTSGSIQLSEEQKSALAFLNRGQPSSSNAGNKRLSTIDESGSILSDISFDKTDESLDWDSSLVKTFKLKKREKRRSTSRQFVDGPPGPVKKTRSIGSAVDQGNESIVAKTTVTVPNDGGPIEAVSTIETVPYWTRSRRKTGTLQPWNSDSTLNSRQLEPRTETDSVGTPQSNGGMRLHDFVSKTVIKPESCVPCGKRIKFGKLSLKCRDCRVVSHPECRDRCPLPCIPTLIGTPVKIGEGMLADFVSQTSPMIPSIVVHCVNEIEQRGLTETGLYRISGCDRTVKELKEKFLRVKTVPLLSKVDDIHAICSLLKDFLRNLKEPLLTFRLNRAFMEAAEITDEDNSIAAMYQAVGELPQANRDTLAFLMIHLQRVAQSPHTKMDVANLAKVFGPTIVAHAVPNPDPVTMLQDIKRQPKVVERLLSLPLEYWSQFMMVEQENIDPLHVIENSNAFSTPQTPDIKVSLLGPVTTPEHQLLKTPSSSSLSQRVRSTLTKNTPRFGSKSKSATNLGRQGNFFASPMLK

Compound: CCC12CN3CC(CC)(CN(C1)C3c1cccnc1)C2=O (centres undefined)
- AC50 (Cytochrome P450 1A2): 28.2 µM (inconclusive)
- AC50 (Cytochrome P450 2C9): inconclusive
- AC50 (Cytochrome P450 3A4): 4.47 µM (inconclusive)

Compound: COc1cc2[nH]c3c(N4CCN(c5ccc(Cl)cc5)CC4)ncnc3c2cc1OC
- IC50 [1]: > 20 µM (inactive)

Compound: COc1ccc(C(=O)Nn2cnc3ccccc3c2=O)c(OC)c1
- AC50 (Cytochrome P450 2C19): 17.8 µM (inconclusive)
- AC50 (Cytochrome P450 1A2): 11.2 µM (inconclusive)
- AC50 (Cytochrome P450 2C9): inconclusive

Compound: CCN(CC)CCCNC(=O)C1CCN(C(=O)c2oc3cc4sc(N(C)C)nc4cc3c2C)CC1
- AC50 [2]: > 20 µM (inactive)

Compound: CCn1c(=O)c(C(=O)NCCN2CCCCC2)c(O)c2ccccc21
- IC50 [1]: > 20 µM (inactive)

Compound: N#C/C(=C/c1cn(-c2ccccc2)nc1-c1cccc(OCc2ccccc2)c1)C(=O)NCCCn1ccnc1
- EC50 [3]: > 30 µM (not active)
- AC50 [4]: 5.32 µM (active)
- EC50 [5]: 23.8 µM (active)
- IC50 [1]: > 20 µM (inactive)
- EC50 [6]: 1.44 µM (active)
- EC50 [7]: 22 µM (active)

Compound: CN(C=[N+](C)C)c1cccc2c1C(=O)c1ccccc1C2=O
- IC50 [8]: 58.5 µM (inactive)
- AC50 [2]: > 20 µM (inactive)
- IC50 [9]: > 66 µM (inactive)

Compound: COc1ncc2nc(-c3cn(C)c4ccccc34)c(=O)n(-c3ccccc3)c2n1
- AC50 (Cytochrome P450 1A2): 5.01 µM (inconclusive)
- AC50 (Cytochrome P450 2C9): inconclusive
- AC50 (Cytochrome P450 3A4): 3.16 µM (inconclusive)

Compound: CCN(CC)S(=O)(=O)c1ccc(C(=O)NNC(=O)C2CCN(S(=O)(=O)c3ccc(Cl)cc3)CC2)cc1
- IC50 [1]: > 20 µM (inactive)

Compound: CCCCCn1nnc2c(=O)oc3ccccc3c21
- IC50 (cells): 2.67 µM (active)

Compound: CCN(Cc1ccccc1)C(c1ccc(C)cc1)c1nnnn1C(C)(C)CC (centres undefined)
- CC50 [10]: 100 µM (active)
- AC50 [11]: 2.41 µM (active)
- EC50 (Protein RecA): > 380 µM (inactive)

Compound: COc1ccc(CNCCc2ccc(Cl)cc2)c(OC)c1OC
- EC50 [3]: > 60 µM (not active)
- CC50 [10]: 100 µM (active)
- IC50 [12]: 259 µM (active)
- EC50 [6]: 0.462 µM (active)

Compound: Cc1sc(N/N=C/C=C/c2ccccc2)nc1-c1ccccc1
- AC50 (Cytochrome P450 1A2): 3.55 µM (inconclusive)
- EC50 [3]: 13.8 µM (active)
- AC50 (Cytochrome P450 2C9): inconclusive
- EC50 [6]: 2.67 µM (active)
